Experimental data published in patent US20150026842A1, “METHOD OF CONTROLLING SUDDEN DEATH SYNDROME WITH FLUTRIAFOL” (CHEMINOVA A/S, priority 2013, published 2015).

How the values were obtained:
[1] = tested on: Sudden Death Syndrome (SDS); experiment: Field trial: flutriafol applied pre-emergence to soybean for control of Sudden Death Syndrome; assay type: in vivo
Method: The determination of the efficacy and selectivity of flutriafol fungicide when applied pre-emergence to soybean for control of Sudden Death Syndrome (SDS) was tested in the following example:
The experiment was conducted in a Drummer silty clay loam soil with a pH of 6.8 and 3.0% organic matter. The experiment was set up as a randomized complete block with four replications. Plots were four 30 inch rows or a total of 10 ft. wide by 40 ft. long. Plot site was conventionally tilled and the trial was established on May 15, 2013, by planting NK S36-B6, a sudden death syndrome susceptible soybean variety. Seed was planted 1.5 inches deep and the seeding rate was 140,000 seeds/A. Topguard (a commercially available flutriafol SC formulation comprising 125 g/l) was applied at planting in-furrow in a 3-5 inch T-band perpendicular to the row with Teejet 4001E nozzles in a spray volume of 2 GPA. Topguard rates applied were 0.13, 0.195, 0.26 lb ai/acre (corresponding to 145.7, 218.6, 291.4 g ai/ha, respectively). These correspond to rates of 16, 24, or 32 fl oz of product/acre, respectively. One treatment of a 3-5 inch band of 32 fl oz/A Topguard was applied on May 21 as an ‘At Cracking’ application immediately prior to crop emergence. Trial was inoculated with SDS on sterile sorghum media that was applied in-furrow with a gandy box at planting at a rate of 25 ml per 20 ft of row. Data was collected from the two center rows from each plot.
Drip irrigation was installed so the trial had no moisture stress throughout the season. On August 12, 19 and 30, soybean sudden death syndrome (SDS) incidence (0-100%) and severity (0-9) were evaluated. An SDS disease index (SDS DX) was created by multiplying the % Incidence by the % Severity and dividing by 9. Soybeans were harvested on October 10 and yields were calculated and adjusted to bu/A at 13% moisture.

Fusarium virguliforme = experiment: Mycelial colony growth of Fusarium virguliforme on flutriafol-amended PDA; assay type: cell-based
Method: Inhibition of Fusarium virguliforme was tested in the following example:
The flutriafol composition used in the example was TOPGUARD (125 g/L flutriafol SC). Each pathogen was grown out on fresh potato dextrose agar (commercial PDA), assessed and used to seed 2× autoclaved rice for inoculums development. At 7-10 days, two infested rice grains of each pathogen (2 per pathogen type) was placed at equal distances on flutriafol-amended PDA and incubated at 27-29° C. Mycelial colony diameter from each rice grain was measured at 1, 3, 5 and 7 days from grain placement. The included tables and data sets illustrate the differences in mycelia growth in response to various concentrations of the fungicide for one of the SDS pathogen types, Fusarium virguliforme.

[2] = applied in a T-Band, August 12 and August 19

OC(Cn1cncn1)(c1ccc(F)cc1)c1ccccc1F (racemic) [flutriafol, (RS)-2,4′-difluoro-α-(1H-1,2,4-triazol-1-ylmethyl)benzhydryl alcohol]
soybean yield ([1]; T-band at 16, 24 or 32 oz/A, compared to the 'At Cracking' application and the untreated check): trend to higher soybean yield | Disease Index scores [1, 2]: numerically lower | SDS Incidence [1, 2]: numerically lower | Dia (mm) 1 day (Fusarium virguliforme; 0.01 ppm in PDA): 0 mm | Dia (mm) 3 days (Fusarium virguliforme; 0.01 ppm in PDA): 10.4 mm | Dia (mm) 5 days (Fusarium virguliforme; 0.01 ppm in PDA): 15.6 mm | Dia (mm) 7 days (Fusarium virguliforme; 0.01 ppm in PDA): 19.6 mm | Dia (mm) 1 day (Fusarium virguliforme; 0.1 ppm in PDA): 0 mm | Dia (mm) 3 days (Fusarium virguliforme; 0.1 ppm in PDA): 10.1 mm | Dia (mm) 5 days (Fusarium virguliforme; 0.1 ppm in PDA): 16.4 mm | Dia (mm) 7 days (Fusarium virguliforme; 0.1 ppm in PDA): 19.8 mm | Dia (mm) 1 day (Fusarium virguliforme; 1 ppm in PDA): 0 mm | Dia (mm) 3 days (Fusarium virguliforme; 1 ppm in PDA): 9.6 mm | Dia (mm) 5 days (Fusarium virguliforme; 1 ppm in PDA): 15.3 mm | Dia (mm) 7 days (Fusarium virguliforme; 1 ppm in PDA): 20 mm | Dia (mm) 1 day (Fusarium virguliforme; 10 ppm in PDA): 0 mm | Dia (mm) 3 days (Fusarium virguliforme; 10 ppm in PDA): 7.5 mm | Dia (mm) 5 days (Fusarium virguliforme; 10 ppm in PDA): 13.9 mm | Dia (mm) 7 days (Fusarium virguliforme; 10 ppm in PDA): 18.1 mm | Dia (mm) 1 day (Fusarium virguliforme; 100 ppm in PDA): 0 mm | Dia (mm) 3 days (Fusarium virguliforme; 100 ppm in PDA): 0 mm | Dia (mm) 5 days (Fusarium virguliforme; 100 ppm in PDA): 0 mm | Dia (mm) 7 days (Fusarium virguliforme; 100 ppm in PDA): 3 mm | Dia (mm) 1 day (Fusarium virguliforme; 250 ppm in PDA, 27-29° C.): 0 mm | Dia (mm) 3 days (Fusarium virguliforme; 250 ppm in PDA): 0 mm | Dia (mm) 5 days (Fusarium virguliforme; 250 ppm in PDA): 0 mm | Dia (mm) 7 days (Fusarium virguliforme; 250 ppm in PDA): 0 mm
